Our source for the T/C values is PubChem BioAssay AID330 (DTP/NCI, 2004).

Values joined by “and” are separate entries in the source; they are usually repeats but may differ in a detail not shown here. Identical values can stand only once. Inconclusive results and toxic doses are left out.

The assay has as its system P388 leukemia ip, CD2F1 mice, survival T/C. The experiment in a line: NCI In Vivo Anticancer Drug Screen. Data for tumor model P388 Leukemia (intraperitoneal) in CD2F1 (CDF1) mice. Conditions: endpoint: median survival time, higher = longer survival. In a few lines:
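Mice carrying the transplanted tumor received test compound or vehicle. Survival was recorded in each group, and the value is the treated-group measurement divided by that of the vehicle-treated control group.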

Setting [1] is: dose: 0.25 % in 0.5 ml injection vol, schedule: Q01DX009 (ip), vehicle: water.
Setting [2] is: dose: 0.5 % in 0.5 ml injection vol, schedule: Q01DX009 (ip), vehicle: water.
Setting [3] is: dose: 12.5 mg/kg/injection, schedule: Q01DX005 (ip), vehicle: Klucel (hydroxypropylcellulose) (HPC).
[4] abbreviates: dose: 25.0 mg/kg/injection, schedule: Q01DX005 (ip), vehicle: Klucel (hydroxypropylcellulose) (HPC).
The mark [5] stands for this setting: dose: 50.0 mg/kg/injection, schedule: Q01DX005 (ip), vehicle: Klucel (hydroxypropylcellulose) (HPC).
[6] abbreviates: dose: 50.0 mg/kg/injection, schedule: Q01DX009 (ip), vehicle: Klucel (hydroxypropylcellulose) (HPC).
[7] abbreviates: dose: 100.0 mg/kg/injection, schedule: Q01DX009 (ip), vehicle: Klucel (hydroxypropylcellulose) (HPC).
[8] abbreviates: dose: 200.0 mg/kg/injection, schedule: Q01DX009 (ip), vehicle: Klucel (hydroxypropylcellulose) (HPC).

As to `C=C(C)C12CC(COC(=O)c3ccccc3)C34OC5(OC1C3C1OC1(CO)C(O)C1(O)C(OC(=O)c3ccccc3)C(C)C(C(C)CCCCCCC5O)C14)O2` (configuration not stated), the T/C (dose: 0.8 micrograms/kg/injection, schedule: Q01DX009 (ip), vehicle: Klucel (hydroxypropylcellulose) (HPC)) is 104 % of control; the T/C (dose: 1.5 micrograms/kg/injection, schedule: Q01DX009 (ip), vehicle: saline) is 99 % of control; the T/C (dose: 1.6 micrograms/kg/injection, schedule: Q01DX009 (ip), vehicle: Klucel (hydroxypropylcellulose) (HPC)) was 110 % of control; the T/C (dose: 3.1 micrograms/kg/injection, schedule: Q01DX009 (ip), vehicle: saline) was 99 % of control; the T/C (dose: 3.2 micrograms/kg/injection, schedule: Q01DX009 (ip), vehicle: Klucel (hydroxypropylcellulose) (HPC)) is 102 % of control; the T/C (dose: 6.2 micrograms/kg/injection, schedule: Q01DX009 (ip), vehicle: saline) was 96 % of control. Also, the T/C is, setting by setting: (dose: 6.3 micrograms/kg/injection, schedule: Q01DX009 (ip), vehicle: Klucel (hydroxypropylcellulose) (HPC)) 98 % of control; (dose: 12.5 micrograms/kg/injection, schedule: Q01DX009 (ip), vehicle: Klucel (hydroxypropylcellulose) (HPC)) 112 % of control; (dose: 12.5 micrograms/kg/injection, schedule: Q01DX009 (ip), vehicle: saline with Tween-80) 89 % of control; (dose: 12.5 micrograms/kg/injection, schedule: Q01DX009 (ip), vehicle: saline) 124 % of control; (dose: 25.0 micrograms/kg/injection, schedule: Q01DX009 (ip), vehicle: Klucel (hydroxypropylcellulose) (HPC)) 102 % of control; (dose: 25.0 micrograms/kg/injection, schedule: Q01DX009 (ip), vehicle: saline with Tween-80) 96 % of control. Also, the T/C is, setting by setting: (dose: 25.0 micrograms/kg/injection, schedule: Q01DX009 (ip), vehicle: saline) 150 % of control; (dose: 50.0 micrograms/kg/injection, schedule: Q01DX009 (ip), vehicle: Klucel (hydroxypropylcellulose) (HPC)) 101 % of control; (dose: 50.0 micrograms/kg/injection, schedule: Q01DX009 (ip), vehicle: saline) 157 % of control and 159 % of control; (dose: 100.0 micrograms/kg/injection, schedule: Q01DX009 (ip), vehicle: Klucel (hydroxypropylcellulose) (HPC)) 104 % of control; (dose: 200.0 micrograms/kg/injection, schedule: Q01DX009 (ip), vehicle: Klucel (hydroxypropylcellulose) (HPC)) 110 % of control.
On to `CC1(C)C(C#N)C(=O)NC(=O)C1C#N` (configuration not stated), for which the T/C reads like this: (dose: 12.5 mg/kg/injection, schedule: Q01DX009 (ip), vehicle: water) 97 % of control; (dose: 25.0 mg/kg/injection, schedule: Q01DX009 (ip), vehicle: water) 95 % of control; (dose: 50.0 mg/kg/injection, schedule: Q01DX009 (ip), vehicle: water) 93 % of control; (dose: 100.0 mg/kg/injection, schedule: Q01DX009 (ip), vehicle: water) 104 % of control; (dose: 200.0 mg/kg/injection, schedule: Q01DX009 (ip), vehicle: water) 101 % of control.
As for `NNC(=O)C(NC(=O)c1ccccc1)C(N)=O` (configuration not stated), the T/C by setting is: (dose: 100.0 mg/kg/injection, schedule: Q04DX003 (ip), vehicle: saline) 95 % of control; (dose: 200.0 mg/kg/injection, schedule: Q04DX003 (ip), vehicle: saline) 95 % of control; (dose: 400.0 mg/kg/injection, schedule: Q04DX003 (ip), vehicle: saline) 94 % of control.
As to `CC(O)C(=O)O` (configuration not stated), the T/C was 98 % of control and 100 % of control (dose: 0.06 % in 0.5 ml injection vol, schedule: Q01DX009 (ip), vehicle: water); 107 % of control and 95 % of control (dose: 0.12 % in 0.5 ml injection vol, schedule: Q01DX009 (ip), vehicle: water); 93 % of control under setting [1]; 99 % of control and 100 % of control under setting [2]; 100 % of control (dose: 4.0 % in 0.5 ml injection vol, schedule: Q01DX009 (ip), vehicle: water); 99 % of control and 100 % of control (dose: 8.0 % in 0.5 ml injection vol, schedule: Q01DX009 (ip), vehicle: water).
As for `[Fe].[c-]1[c-][c-][c-](CNc2ncnc3nc[nH]c23)[c-]1.[c-]1[c-][c-][cH-][c-]1`, the T/C was 97 % of control under setting [3]; 100 % of control under setting [4]; 86 % of control under setting [5]; 91 % of control (dose: 100.0 mg/kg/injection, schedule: Q01DX005 (ip), vehicle: Klucel (hydroxypropylcellulose) (HPC)).
As for `CCSc1ccc(C(=O)C2(C)Cc3ccccc3CN2)cc1` (configuration not stated), the T/C was 100 % of control (dose: 100.0 mg/kg/injection, schedule: Q01DX001 (ip), vehicle: saline with Tween-80); 99 % of control (dose: 200.0 mg/kg/injection, schedule: Q01DX001 (ip), vehicle: saline with Tween-80); 98 % of control (dose: 400.0 mg/kg/injection, schedule: Q01DX001 (ip), vehicle: saline with Tween-80).
On to `O=c1c(O)cc2c(O)oc3c(=O)c(O)c(O)c4c(O)oc1c2c43`, for which the T/C is 114 % of control and 97 % of control (dose: 25.0 mg/kg/injection, schedule: Q01DX009 (ip), vehicle: suspension in saline); 111 % of control and 97 % of control (dose: 50.0 mg/kg/injection, schedule: Q01DX009 (ip), vehicle: suspension in saline); 112 % of control and 98 % of control (dose: 100.0 mg/kg/injection, schedule: Q01DX009 (ip), vehicle: suspension in saline); 103 % of control and 114 % of control (dose: 200.0 mg/kg/injection, schedule: Q01DX009 (ip), vehicle: suspension in saline).
In the case of `Cc1oc(-c2cccc(F)c2)nc1C(N)=O`, the T/C is 102 % of control under setting [6], 102 % of control under setting [7] and 100 % of control under setting [8].
`CCCCCCCCOc1ccc(/C=C/C(C)=N/NC(N)=NC)cc1OC`: the T/C was 111 % of control (dose: 7.5 mg/kg/injection, schedule: Q01DX005 (ip), vehicle: saline with Tween-80); 95 % of control (dose: 15.0 mg/kg/injection, schedule: Q01DX005 (ip), vehicle: saline with Tween-80); 102 % of control (dose: 30.0 mg/kg/injection, schedule: Q01DX005 (ip), vehicle: saline with Tween-80).
Regarding `CNC(=O)OCc1c(COC(=O)NC)c(-c2ccccc2)n2c1CCC2`, the T/C reads like this: under setting [6], 124 % of control; under setting [7], 124 % of control.
As for `CCOC(=O)C(N)(CO)Cc1ccccc1` (configuration not stated), the T/C (dose: 50.0 mg/kg/injection, schedule: Q01DX005 (ip), vehicle: saline) was 103 % of control; the T/C (dose: 100.0 mg/kg/injection, schedule: Q01DX005 (ip), vehicle: saline) is 100 % of control; the T/C (dose: 200.0 mg/kg/injection, schedule: Q01DX005 (ip), vehicle: saline) is 99 % of control.
As for `CN=C1SC(C)(C)NN1C`, the T/C was 104 % of control under setting [3]; 104 % of control under setting [4]; 101 % of control and 114 % of control under setting [5].
As to `Cc1[nH]oc(=O)c1C(=O)c1ccccc1`, the T/C was 95 % of control (dose: 50.0 mg/kg/injection, schedule: Q01DX005 (ip), vehicle: saline with Tween-80); 91 % of control (dose: 100.0 mg/kg/injection, schedule: Q01DX005 (ip), vehicle: saline with Tween-80); 91 % of control (dose: 200.0 mg/kg/injection, schedule: Q01DX005 (ip), vehicle: saline with Tween-80).
In the case of `O=Cc1ccccc1`, the T/C is 98 % of control (dose: 12.5 mg/kg/injection, schedule: Q01DX009 (ip), vehicle: Klucel (hydroxypropylcellulose) (HPC)); 99 % of control and 100 % of control and 115 % of control (dose: 25.0 mg/kg/injection, schedule: Q01DX009 (ip), vehicle: Klucel (hydroxypropylcellulose) (HPC)); 100 % of control and 103 % of control and 107 % of control under setting [6]; 100 % of control and 97 % of control and 98 % of control under setting [7]; 100 % of control and 109 % of control and 95 % of control under setting [8]; 99 % of control under setting [1]. For the same compound, the T/C was 93 % of control and 98 % of control (dose: 400.0 mg/kg/injection, schedule: Q01DX009 (ip), vehicle: Klucel (hydroxypropylcellulose) (HPC)); 100 % of control under setting [2]; 100 % of control (dose: 1.0 % in 0.5 ml injection vol, schedule: Q01DX009 (ip), vehicle: water).
For the compound `O=C1O/C(=C\c2ccccc2)c2c(Br)c(Br)c(Br)c(Br)c21`, the T/C is 94 % of control (dose: 50.0 mg/kg/injection, schedule: Q01DX009 (ip), vehicle: saline with Tween-80); 93 % of control (dose: 100.0 mg/kg/injection, schedule: Q01DX009 (ip), vehicle: saline with Tween-80); 99 % of control (dose: 200.0 mg/kg/injection, schedule: Q01DX009 (ip), vehicle: saline with Tween-80); 99 % of control (dose: 400.0 mg/kg/injection, schedule: Q01DX009 (ip), vehicle: saline with Tween-80).
